Measurements reported in US20120028968A1 (priority 2009, published 2012).
Where a name gives a salt, the structure may show the parent alone.

Target: α7-subtype of nicotinic receptors (Rattus norvegicus, UniProt Q05941)
Assay: biochemical
Assay type: binding

Chain of α7-subtype of nicotinic receptors (Q05941 23-502): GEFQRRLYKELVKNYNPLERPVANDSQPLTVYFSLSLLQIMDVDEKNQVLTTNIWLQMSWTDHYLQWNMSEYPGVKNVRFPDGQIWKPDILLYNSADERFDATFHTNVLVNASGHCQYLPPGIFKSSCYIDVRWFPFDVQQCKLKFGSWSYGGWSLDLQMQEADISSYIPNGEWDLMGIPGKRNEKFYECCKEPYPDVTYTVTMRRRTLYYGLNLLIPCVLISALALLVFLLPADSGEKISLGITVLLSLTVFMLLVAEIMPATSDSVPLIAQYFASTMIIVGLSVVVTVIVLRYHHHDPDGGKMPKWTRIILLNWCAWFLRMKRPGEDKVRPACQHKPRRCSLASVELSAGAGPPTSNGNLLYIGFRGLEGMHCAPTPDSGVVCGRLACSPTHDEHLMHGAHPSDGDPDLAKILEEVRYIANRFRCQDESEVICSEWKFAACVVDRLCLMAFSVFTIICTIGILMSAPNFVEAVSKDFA

## c1ccc2c(c1)oc1c(-c3nnc(N4CCN5CCC4CC5)o3)cccc12 [Compound 1, 4-(5-Dibenzofuran-4-yl-[1,3,4]oxadiazol-2-yl)-1,4-diaza-bicyclo[3.2.2]nonane fumaric acid salt]
  IC50: 16 nM
